Data on 2 compounds can be found in patent publication US10766888B1, “HMOX1 inducers” (Mitobridge Inc., priority 2019, dated 2020).

Series [1] in a line: PK study: plasma and brain levels in mice. The settings on record: male C57BL/6 mice, 50 mg/kg oral; for concentration at 0.5 h / concentration at 4 h: mouse; for concentration at 0.5 h: 0.5 hr post dosing; for concentration at 4 h: 4 hr post dosing. Format: in vivo. The protocol:
9-10 week old male C57BL/6 mice were dosed orally with 50 mg/kg of the test compound formulated in 5% w/v tween 80 and 0.5% methyl cellulose. At 0.5 and 4 h post dosing, whole blood was collected, animals were sacrificed and brain tissues were collected. The blood samples were immediately placed on ice, and centrifuged within 60 min at 4° C. for 3 min at 14000 rpm to obtain plasma. Plasma was transferred by pipette to pre-labeled Eppendorf tubes, stored at −80° C. until analyzed.
Brain tissue samples were collected and rinsed with fresh ice cold 0.9% NaCl solution, dried quickly and thereafter frozen on dry ice/liquid nitrogen and stored at −70±10° C. until analyzed. Homogenization was done using phosphate buffer saline and used for analysis. Bioanalysis was performed using LC-MS/MS (API 4000).

A further series can be described thus: Kinetic solubility. Format: physicochemical. The settings on record: Dulbecco's phosphate buffer saline (DPBS), aqueous buffer, kinetic from dmso stock, DPBS pH 7.4, 25° C., 200 μM test compound. In a few lines:
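Compound from 10 mM DMSO stock diluted to 200 μM final in DPBS pH 7.4 and, separately, in DMSO, in duplicate. Shaken 16 h at 25 °C, then centrifuged 20 min at 25 °C. Supernatant analysed by HPLC.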

Series [2] deals with Human Heme Oxygenase-1 (HMOX-1). Briefly: ELISA assay to measure human heme oxygenase-1 (HMOX-1) in HepG2 lysate. Format: cell-based. In outline:
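HO-1 protein levels were read as fold change over DMSO-treated cells, with EC50 derived from these values. Quantitation used a chemiluminescent streptavidin-HRP capture ELISA, calibrated with an HO-1 standard series starting at 20 ng/ml, run at 20 °C. Samples were HepG2 lysates made with Triton X100/EDTA buffer and diluted 1:20.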

Where [3] appears, read: brain, read-out: Brain (ng/g) 0.5 hr.
The mark [4] stands for this setting: plasma, read-out: Plasma (ng/ml) 0.5 hr.
[5] abbreviates: plasma, read-out: Plasma (ng/ml) 4 hr.
The mark [6] stands for this setting: human HMOX1 protein level in HepG2 lysate, * = average of 2 or more EC50 determinations, NA = Not Active, read-out: EC50.

Molecules are shown by their SMILES. ≈ marks a conversion by molar mass, not a printed value. Like-named read-outs stand apart in the source and are kept apart here.

Broadly, the solubility is the concentration that dissolves in the medium under given conditions. A high value points to a readily soluble substance. As a reminder, the EC50 is the concentration at which the effect is half-maximal. In the case of `Cn1c(Nc2nc3ccccc3o2)nc2cc(C(=O)NCCOCCO)ccc21` [Example 17, 2-(benzo[d]oxazol-2-ylamino)-N-(2-(2-hydroxyethoxy)ethyl)-1-methyl-1H-benzo[d]imidazole-5-carboxamide], the concentration at 0.5 h in series [1] (setting [3]) was found to be 188 ± 83 ng/g; in series [1] (setting [4]), 4240 ± 771 ng/mL. Moreover, in series [1] (setting [5]), the concentration at 4 h is 72 ± 38 ng/mL. In the series “Kinetic solubility”, the solubility at 16 h worked out at 11.6 µM (≈ 4.59 µg/mL). Further, the EC50 stood at 1400 nM in series [2] (HepG2, human HMOX1, as listed in Table 5, read-out: HMOX1 EC50 h) and 1400 nM in series [2] (setting [6]).

In the case of `COCCNC(=O)c1ccc2c(c1)nc(Nc1nc3ccc(OCCOC)cc3o1)n2C` [Example 56, 2-((6-(2-methoxyethoxy)benzo[d]oxazol-2-yl)amino)-N-(2-methoxyethyl)-1-methyl-1H-benzo[d]imidazole-5-carboxamide], the “brain penetration (in words)” value in series [1] is listed as “good brain penetration”. In addition, the concentration at 0.5 h stood at 4230 ± 600 ng/g in series [1] (setting [3]) and 4240 ± 428 ng/mL in series [1] (setting [4]). Also, the concentration at 4 h in series [1] (brain, read-out: Brain (ng/g) 4 hr) stood at 122 ± 153 ng/g; in series [1] (setting [5]) it was 281 ± 318 ng/mL. The compound also registered a solubility at 16 h in the series “Kinetic solubility” of 9.7 µM (≈ 4.26 µg/mL). Further, the EC50 in series [2] (setting [6]) was 1400 nM.
